This assay addresses human NaV 1.8 (Homo sapiens, UniProt Q9Y5Y9). Put plainly: E-VIPR Assay Detecting and Measuring NaV Inhibition Properties. The class given is cell-based. The note with it: HEK cells expressing a truncated form of human NaV 1.8; electrical stimulation, membrane potential FRET dyes; read-out: measured IC50 value in the E-VIPR Assay. The source says:
E-VIPR Assay Detecting and Measuring NaV Inhibition Properties
Sodium ion channels are voltage-dependent proteins that can be activated by inducing membrane voltage changes by applying electric fields. The electrical stimulation instrument and methods of use, referred to as E-VIPR, are described in International Publication No. WO 2002/008748 A3 and C.-J. Huang et al. Characterization of voltage-gated sodium channel blockers by electrical stimulation and fluorescence detection of membrane potential, 24 Nature Biotech. 439-46 (2006), both of which are incorporated by reference in their entirety. The instrument comprises a microtiter plate handler, an optical system for exciting the coumarin dye while simultaneously recording the coumarin and oxonol emissions, a waveform generator, a current- or voltage-controlled amplifier, and parallel electrode pairs that are inserted into assay plate wells. Under integrated computer control, this instrument passes user-programmed electrical stimulus protocols to cells within the wells of the microtiter plate.
16-20 hours prior to running the assay on E-VIPR, HEK cells expressing a truncated form of human NaV 1.8 with full channel activity were seeded into microtiter 384-well plates, pre-coated with matrigel, at a density of 25,000 cells per well. 2.5-5% KIR2.1 BacMam virus was added to the final cell suspension before seeding into cell plates. HEK cells were grown in Dulbecco's Modified Eagle's Medium (DMEM) supplemented with 10% FBS (Fetal Bovine Serum, qualified; Sigma #F4135), 1% NEAA (Non-Essential Amino Acids, Gibco #11140), 1% HEPES (Gibco #15630), 1% Pen-Strep (Penicillin-Streptomycin; Gibco #15140) and 5 μg/ml Blasticidin (Gibco #R210-01). Cells were expanded in 5-layer CellSTACK culture chambers or cell culture flasks with vented caps, with 90-95% humidity and 5% CO2.
Compound Loading Buffer (2× concentration): Na/TMA Cl Bath1 Buffer containing HS (omitted in experiments run in the absence of human serum (HS)) 50%, VABSC-1 1 mM, BSA 0.2 mg/ml (in Bath-1), KCl 9 mM, DMSO 0.625%.
Assay Protocol (7 Key Steps):
1) To reach the final concentration in each well, 375 nL of each compound was pre-spotted (in neat DMSO) into polypropylene compound plates at 240× desired final concentration from an intermediate stock concentration of 0.075 mM, in an 11-point dose response, 3-fold dilution, resulting in a top dose of 300 nM final concentration in the cell plate. Vehicle control (neat DMSO), and positive control (an established NaV1.8 inhibitor, 25 μM final in assay in DMSO) were added manually to the outermost columns of each plate respectively. The compound plate was backfilled with 45 μL per well of Compound Loading Buffer resulting in a 240-fold dilution of compound following a 1:1 transfer of compound into the cell plate (see Step 6). Final DMSO concentration for all wells in the assay was 0.625% (0.75% DMSO was supplemented to the Compound Loading Buffer for a final DMSO concentration of 0.625%). This assay dilution protocol was adjusted to enable a higher dose range to be tested in the presence of HS or if the final assay volume was altered.
2) Hexyl Dye Solution was prepared.
3) Cell plates were prepared. On the day of the assay, the media was aspirated, and the cells were washed three times with 80 μL of Bath-1 buffer, maintaining 25 μL residual volume in each well.
4) 25 μL per well of Hexyl Dye Solution was dispensed into the cell plates. The cells were incubated for 20 minutes at room temperature or ambient conditions in darkness.
5) 45 μL per well of Compound Loading Buffer was dispensed into compound plates.
6) The cell plates were washed three times with 80 μL per well of Bath-1 Buffer, leaving 25 µL of residual volume. Then 25 μL per well from compound plate was transferred to each cell plate. The mixture was incubated for 30 minutes at room temperature/ambient conditions. […]

The text below walks through data of patent US20230382910A1, “HETEROARYL COMPOUNDS FOR THE TREATMENT OF PAIN” (VERTEX PHARMACEUTICALS INCORPORATED, priority 2022, published 2023).

Broadly, the IC50 is the concentration that gives 50% inhibition.

human NaV 1.8, sequence (Q9Y5Y9 126-399 limits assumed): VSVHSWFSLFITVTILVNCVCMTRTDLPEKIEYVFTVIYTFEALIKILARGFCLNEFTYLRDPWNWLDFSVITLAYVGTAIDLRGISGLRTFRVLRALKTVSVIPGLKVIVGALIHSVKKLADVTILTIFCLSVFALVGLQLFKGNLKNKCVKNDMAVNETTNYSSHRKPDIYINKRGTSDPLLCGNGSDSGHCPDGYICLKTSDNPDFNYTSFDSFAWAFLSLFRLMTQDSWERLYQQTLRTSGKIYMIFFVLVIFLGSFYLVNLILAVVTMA
human NaV 1.8, sequence (Q9Y5Y9 660-890 limits assumed): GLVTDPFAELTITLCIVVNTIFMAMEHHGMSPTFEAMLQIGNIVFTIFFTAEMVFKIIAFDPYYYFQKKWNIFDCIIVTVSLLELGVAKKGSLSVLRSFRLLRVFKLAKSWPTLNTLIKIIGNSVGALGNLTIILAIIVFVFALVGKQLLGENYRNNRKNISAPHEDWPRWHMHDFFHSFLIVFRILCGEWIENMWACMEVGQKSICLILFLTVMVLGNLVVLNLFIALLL
human NaV 1.8, sequence (Q9Y5Y9 1148-1722 limits assumed): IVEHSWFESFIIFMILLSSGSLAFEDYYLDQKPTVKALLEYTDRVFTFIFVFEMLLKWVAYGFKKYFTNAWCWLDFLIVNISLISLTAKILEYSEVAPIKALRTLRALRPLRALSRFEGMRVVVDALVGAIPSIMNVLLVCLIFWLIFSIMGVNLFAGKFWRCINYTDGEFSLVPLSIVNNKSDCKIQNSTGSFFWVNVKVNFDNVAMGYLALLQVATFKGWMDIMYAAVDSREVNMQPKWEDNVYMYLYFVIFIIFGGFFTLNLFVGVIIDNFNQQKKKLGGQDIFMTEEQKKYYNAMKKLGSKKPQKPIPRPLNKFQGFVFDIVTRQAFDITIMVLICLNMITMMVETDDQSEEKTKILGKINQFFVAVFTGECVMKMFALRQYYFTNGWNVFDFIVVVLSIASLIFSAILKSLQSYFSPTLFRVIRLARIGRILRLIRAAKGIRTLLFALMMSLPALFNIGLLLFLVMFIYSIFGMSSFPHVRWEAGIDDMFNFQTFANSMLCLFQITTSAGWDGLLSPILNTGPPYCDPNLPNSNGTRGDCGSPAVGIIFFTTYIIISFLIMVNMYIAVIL

As to `Cc1cc(C(C)(CO)C(F)(F)F)c(Cl)cc1-c1cc(=O)c2c(C(N)=O)nccc2[nH]1` (single isomer, unassigned) [Compound 365], the IC50 lay in the range of 500 to 2000 nM.
The result for `CC(C)(C)c1ccc(-c2cc(=O)c3ccccc3[nH]2)cc1` [Compound 5, 2-(4-tert-butylphenyl)-1H-quinolin-4-one] reads 500 to 2000 nM; that for `Cc1ccc(-c2cc(=O)c3ccccc3[nH]2)c(C)c1` [Compound 6, 2-(2,4-dimethylphenyl)-1H-quinolin-4-one], 2000 to 5000 nM.
The result for `Cc1ccc(C(C)(C)C)cc1-c1cc(=O)c2ccccc2[nH]1` [Compound 7, 2-(5-tert-butyl-2-methyl-phenyl)-1H-quinolin-4-one] reads 500 to 2000 nM; that for `Cc1cc(C2CC2)ccc1-c1cc(=O)c2ccccc2[nH]1` [Compound 8, 2-(4-cyclopropyl-2-methyl-phenyl)-1H-quinolin-4-one], 500 to 2000 nM.
The result for `Cc1c(-c2cc(=O)c3ccccc3[nH]2)ccc2c1CCC2` [Compound 12, 2-(4-methylindan-5-yl)-1H-quinolin-4-one] reads 500 to 2000 nM; that for `Cc1ccc(C(F)(F)F)cc1-c1cc(=O)c2ccccc2[nH]1` [Compound 17, 2-[2-methyl-5-(trifluoromethyl)phenyl]-1H-quinolin-4-one], 2000 to 5000 nM; that for `COc1cc(C(F)(F)F)ccc1-c1cc(=O)c2ccccc2[nH]1` [Compound 19, 2-[2-methoxy-4-(trifluoromethyl)phenyl]-1H-quinolin-4-one], 2000 to 5000 nM.
Regarding `COc1cc(C)c(-c2cc(=O)c3ccccc3[nH]2)cc1C` [Compound 23, 2-(4-methoxy-2,5-dimethyl-phenyl)-1H-quinolin-4-one], the IC50 lay in the range of 2000 to 5000 nM.
`CCOc1cc(C(F)(F)F)ccc1-c1cc(=O)c2ccccc2[nH]1` [Compound 28, 2-[2-ethoxy-4-(trifluoromethyl)phenyl]-1H-quinolin-4-one]: the half-maximal inhibitory concentration (IC50) fell in the range of 2000 to 5000 nM.
The result for `Cc1ccc(C)c(-c2cc(=O)c3ccccc3[nH]2)c1` [Compound 52, 2-(2,5-dimethylphenyl)-1H-quinolin-4-one] reads 2000 to 5000 nM; that for `Cc1cc(OC(F)(F)F)ccc1-c1cc(=O)c2ccccc2[nH]1` [Compound 54, 2-[2-methyl-4-(trifluoromethoxy)phenyl]-1H-quinolin-4-one], 500 to 2000 nM.
The result for `O=c1cc(-c2cc3c(cc2Cl)CCC3)[nH]c2ccccc12` [Compound 70, 2-(6-chloroindan-5-yl)-1H-quinolin-4-one] reads 2000 to 5000 nM; that for `COc1cc(C)c(C)cc1-c1cc(=O)c2ccccc2[nH]1` [Compound 72, 2-(2-methoxy-4,5-dimethyl-phenyl)-1H-quinolin-4-one], 2000 to 5000 nM; that for `Cc1ccc(-c2cc(=O)c3ccccc3[nH]2)c(C)c1Cl` [Compound 74, 2-(3-chloro-2,4-dimethyl-phenyl)-1H-quinolin-4-one], 500 to 2000 nM.
The result for `Cc1cc(Cl)ccc1-c1cc(=O)c2ccccc2[nH]1` [Compound 75, 2-(4-chloro-2-methyl-phenyl)-1H-quinolin-4-one] reads 2000 to 5000 nM.
Consider `Cc1cc(C(C)(C)C)ccc1-c1cc(=O)c2c[n+]([O-])ccc2[nH]1` [Compound 107, 2-(4-tert-butyl-2-methyl-phenyl)-6-oxido-1H-1,6-naphthyridin-6-ium-4-one], for which the IC50 is 500 to 2000 nM.
The result for `Cc1cc(C(C)(C)C)ccc1-c1cc(=O)c2cccnc2[nH]1` [Compound 111, 2-(4-tert-butyl-2-methyl-phenyl)-1H-1,8-naphthyridin-4-one] reads 2000 to 5000 nM; that for `Cc1cc(Cl)c(Cl)cc1-c1cc(=O)c2ccccc2[nH]1` [Compound 117, 2-(4,5-dichloro-2-methyl-phenyl)-1H-quinolin-4-one], 500 to 2000 nM; that for `Cc1cc(Cl)c(Cl)cc1-c1cc(=O)c2cnccc2[nH]1` [Compound 118, 2-(4,5-dichloro-2-methyl-phenyl)-1H-1,6-naphthyridin-4-one], 500 to 2000 nM.
The result for `Cc1cc(C)c(-c2cc(=O)c3c(C#N)cccc3[nH]2)cc1C` [Compound 123, 4-oxo-2-(2,4,5-trimethylphenyl)-1H-quinoline-5-carbonitrile] reads 500 to 2000 nM.
As to `Cc1cc(C)c(-c2cc(=O)c3ccccc3[nH]2)cc1C` [Compound 124, 2-(2,4,5-trimethylphenyl)-1H-quinolin-4-one], the IC50 is 500 to 2000 nM.
Regarding `Cc1ccc2[nH]c(-c3ccc(C(C)(C)C)cc3C)cc(=O)c2c1` [Compound 126, 2-(4-tert-butyl-2-methyl-phenyl)-6-methyl-1H-quinolin-4-one], the IC50 is 500 to 2000 nM.
The result for `Cc1cc(C2(C#N)CC2)ccc1-c1cc(=O)c2ccccc2[nH]1` [Compound 138, 1-[3-methyl-4-(4-oxo-1H-quinolin-2-yl)phenyl]cyclopropanecarbonitrile] reads 2000 to 5000 nM; that for `CCOC(=O)c1ccc(-c2cc(=O)c3ccccc3[nH]2)c(C)c1` [Compound 166, ethyl 3-methyl-4-(4-oxo-1H-quinolin-2-yl)benzoate], 2000 to 5000 nM.
The result for `COC(C)(C)c1ccc(-c2cc(=O)c3ccccc3[nH]2)c(C)c1` [Compound 180, 2-[4-(1-methoxy-1-methyl-ethyl)-2-methyl-phenyl]-1H-quinolin-4-one] reads 500 to 2000 nM; that for `Cc1cc(-c2cc(=O)c3c[n+]([O-])ccc3[nH]2)c(C)nc1C(C)(C)C` [Compound 195, 2-(6-tert-butyl-2,5-dimethyl-3-pyridyl)-6-oxido-1H-1,6-naphthyridin-6-ium-4-one], 500 to 2000 nM; that for `Cc1cc(-c2cc(=O)c3c(=O)[nH]ccc3[nH]2)c(C)nc1C(F)(F)F` [Compound 200, 2-[2,5-dimethyl-6-(trifluoromethyl)-3-pyridyl]-1,6-dihydro-1,6-naphthyridine-4,5-dione], 500 to 2000 nM.
The result for `COc1cccc2[nH]c(-c3ccc(C4(C(F)(F)F)CC4)cc3C)cc(=O)c12` [Compound 208, 5-methoxy-2-[2-methyl-4-[1-(trifluoromethyl)cyclopropyl]phenyl]-1H-quinolin-4-one] reads 500 to 2000 nM; that for `Cc1cc(C(C)(C)C)ccc1-c1cc(=O)c2cccc(C)c2[nH]1` [Compound 209, 2-(4-tert-butyl-2-methyl-phenyl)-8-methyl-1H-quinolin-4-one], 500 to 2000 nM.
`Cc1ccc(C(C)(C)C)cc1-c1cc(=O)c2c(C(N)=O)nccc2[nH]1` [Compound 212, 2-(5-tert-butyl-2-methyl-phenyl)-4-oxo-1H-1,6-naphthyridine-5-carboxamide]: the IC50 lay in the range of 500 to 2000 nM.
The result for `Cc1nc(C(C)(C)C)ccc1-c1cc(=O)c2c(C(N)=O)nccc2[nH]1` [Compound 221, 2-(6-tert-butyl-2-methyl-3-pyridyl)-4-oxo-1H-1,6-naphthyridine-5-carboxamide] reads 500 to 2000 nM.
As for `CCc1cc(-c2cc(=O)c3c(C(N)=O)nccc3[nH]2)c(C)cc1C` [Compound 224, 2-(5-ethyl-2,4-dimethyl-phenyl)-4-oxo-1H-1,6-naphthyridine-5-carboxamide], the half-inhibitory concentration (IC50) was in the range of 500 to 2000 nM.
The result for `CC(C)(C)c1ccc(-c2cc(=O)c3c(C(N)=O)nccc3[nH]2)c(F)c1` [Compound 228, 2-(4-tert-butyl-2-fluoro-phenyl)-4-oxo-1H-1,6-naphthyridine-5-carboxamide] reads 500 to 2000 nM; that for `Cc1cc(-c2cc(=O)c3c(C(N)=O)nccc3[nH]2)c(C)cc1Cl` [Compound 231, 2-(4-chloro-2,5-dimethyl-phenyl)-4-oxo-1H-1,6-naphthyridine-5-carboxamide], 500 to 2000 nM.
